Source: US11401247B2, “Thiazole-5-carboxylic acid derivative and preparation method and use thereof” (XIANGBEI WELMAN PHARMACEUTICAL CO., LTD, priority 2018, dated 2022)
Read-outs that look alike come from different tables or passages of the source.

What was measured:
hyperuricemia rats [1] = assay: dose-effect relationship study in rat hyperuricemia model; type: in vivo, SD rats; settings: 3 h after first administration, model group 226.2 ± 35.2, blank 37.4 ± 5.1
Description: In order to further study the pharmacological activity of the compounds of the present disclosure, as well as the relationship between the activity and the dose, this example selected several compounds of the present disclosure to conduct a dose-effect relationship study in a rat model, in which exogenous uric acid was administered and uric acid decomposition was inhibited simultaneously. A positive drug was used as a control.
1. Experimental animals: Male SPF grade SD rats weighing 110-150 grams. […] The animals were free to drink and eat. All cages were sterilized at 121° C., feed was sterilized by irradiation, and water was sterilized purified water.
2. Experimental drugs: F-1C, F-2C, F-3A, 1.0 g for each compound; febuxostat (positive drug) 1.0 g; febuxostat ethyl ester (ethyl 2-[3-cyano-4-isobutoxyphenyl]-4-methylthiazole-5-carboxylate) 1.0 g;
3.1 Formulation of F-1C, F-2C, F-3A: Tor each of the compounds, take 100 mg, add 20 ml of 0.5% sodium carboxymethyl cellulose and grind, and then dilute to 100 ml.
3.2 Take 100 mg of febuxostat, add 20 ml of 0.5% sodium carboxymethyl cellulose and grind, and then dilute to 100 ml.
Except the blank group, the rest rats were modeled for 15 days and then their serum uric acid levels were detected. The rats were equally divided into several groups according to the detected uric acid levels thereof.
F-1C, F-2C and F-3A groups: each compound was taken orally at 3 doses, i.e., 2.5, 5 and 10 mg/kg; QD; and 10 animals for each dose group.
Febuxostat group: oral administration of 10 mg/kg, QD, and 10 animals.
Febuxostat ethyl ester group: oral administration of 10 mg/kg, QD, and 10 animals.
The blank group was not administrated with any drug. Each of the rest groups was orally administrated with oteracil potassium 1 g/kg and uric acid 0.3 g/kg and intraperitoneally injected with 0.1 g/kg uric acid (dissolved in 0.5% sodium carboxymethyl cellulose), once a day on schedule, for 15 days. 0.5 ml of blood samples was drawn from orbit before the experiment and […] after the modelling, respectively, to separated serum for determining serum uric acid levels.
After successful modeling, the rats were equally divided into several groups according to the serum uric acid values thereof, and then were intragastrically administrated with the test drugs. Three hours after the first administration, 0.5 ml of orbital venous blood was drawn from the orbit of the rats, centrifuged at 3000 RPM for 15 min, to obtain for determining the serum uric acid level of each rat.
Data were expressed by mean±standard deviation (′x±SD), and analyzed by Excel 7.0 and SPPS 13.0 for Windows software. Q-test was used for the comparison between groups, and the self-paired t-test was used for the comparison of a group before and after administration. It indicated significant difference when P<0.05.

ICR mice = settings: for Number of dead animals: 10 mice; for death, preliminary experiments / LD50/Maximum dose / toxic reactions, preliminary experiments: mice; for death, preliminary experiments / toxic reactions, preliminary experiments: intragastric 1600 mg/kg; for Autopsy results of survival animals: 3000 mg/kg ig; for Abnormal reactions within 12 hours from ig administration: F compounds 3000 mg/kg; for LD50/Maximum dose: ig once, 14 days observation, Bliss method, febuxostat: LD50, F compounds: maximum administration dose, no deaths
hyperuricemia rats [2] = assay: pharmacodynamic screening in rat hyperuricemia model (exogenous uric acid administered, uric acid decomposition inhibited); type: in vivo, SD rats; settings: for Serum uric acid level, Value after 3 h of drug administration: 3 h after first administration, model group 174.4 ± 39.9, blank 53.9 ± 12.8; for uric acid-lowering effect (in words): 3 h after drug administration, febuxostat and ethyl ester 14 mg/kg oral; for uric acid-lowering effect (in words) / p, uric acid level 3 h after drug administration compared with the blank group: F compounds 10 mg/kg; for p, uric acid level 3 h after drug administration compared with the blank group: febuxostat 14 mg/kg oral
in vivo = settings: mouse, po
[3] = formal test, all dose groups, febuxostat high-dose group
[4] = formal test, febuxostat high-dose group

Structure (SMILES)	Serum uric acid content, Value after 3 h of drug administration (hyperuricemia rats [1]; 10 mg/kg oral)	animal deaths within 24 hours from the administration (ICR mice; [3])	death, preliminary experiments (ICR mice)	uric acid-lowering effect (in words) (hyperuricemia rats [2])	p, uric acid level 3 h after drug administration compared with the blank group (hyperuricemia rats [2])	LD50 at 14 days (in vivo)	Autopsy results of survival animals (ICR mice; formal test)	Abnormal reactions within 12 hours from ig administration (ICR mice; [4])	Number of dead animals (ICR mice; ig 3000 mg/kg)	toxic reactions, preliminary experiments (ICR mice)	Serum uric acid level, Value after 3 h of drug administration (hyperuricemia rats [2]; 10 mg/kg oral)	LD50 at 14 days (in vivo; 3000 mg/kg)	also measured
Cc1nc(-c2ccc(OCC(C)C)c(C#N)c2)sc1C(=O)O [Febuxostat, 2-[3-cyano-4-isobutoxyphenyl]-4-methylthiazole-5-carboxylic acid, reference compound]	140.8 ± 33.5^a3, b3 μmol/L	several animals of the high-dose group of febuxotan died	caused death in several mice	good effect on lowering uric acid	< 0.001	701 ± 47.6 mg/kg							Number of dead animals (ICR mice; ig 327.7 mg/kg): 0; Number of dead animals (ICR mice; ig 409.6 mg/kg): 0; Number of dead animals (ICR mice; ig 512 mg/kg): 1; Number of dead animals (ICR mice; ig 640 mg/kg): 3; Number of dead animals (ICR mice; ig 800 mg/kg): 6; Cause of death (ICR mice; mice after ig administration): toxicity to the urinary system; Serum uric acid level, Value after 3 h of drug administration (hyperuricemia rats [2]; 14 mg/kg oral): 86.6 ± 17.5^a3b3c3 μmol/L
CCOC(=O)c1sc(-c2ccc(OCC(C)C)c(C#N)c2)nc1C [Febuxostat ethyl ester, ethyl 2-[3-cyano-4-isobutoxyphenyl]-4-methylthiazole-5-carboxylate, reference compound]	177.3 ± 38.6^a3 μmol/L			inferior to febuxostat									Serum uric acid level, Value after 3 h of drug administration (hyperuricemia rats [2]; 14 mg/kg oral): 113.9 ± 24.9^a3b3c3 μmol/L
Cc1nc(-c2ccc(OCC(C)C)c(C#N)c2)sc1C(=O)NC(C)C(=O)O (stereo not shown) [Compound F-2B]		no animal deaths were observed	no animal died				No obvious abnormalities were observed in the organs	no abnormalities were observed	0	no obvious toxicity symptom was observed	70.3 ± 16.4^a3b3c1 μmol/L		LD50/Maximum dose (ICR mice): 3000 mg/kg
Cc1nc(-c2ccc(OCC(C)C)c(C#N)c2)sc1C(=O)NC1C(O)OC(CO)C(O)C1O (stereo not shown) [Compound F-4A]						3000 mg/kg	No obvious abnormalities were observed in the organs	no abnormalities were observed	0	no obvious toxicity symptom was observed	71.4 ± 19.6^a3b3c1 μmol/L	≥ 3000 mg/kg	animal deaths within 24 hours from the administration (ICR mice; mouse, in vivo): no animal deaths were observed
Cc1nc(-c2ccc(OCC(C)C)c(C#N)c2)sc1C(=O)OC(C)Cl (stereo not shown) [Compound F-1C]	100.1 ± 25.8^a3, b3, c3 μmol/L	no animal deaths were observed	no animal died	very obvious uric acid-lowering effects	no significant difference	3000 mg/kg	No obvious abnormalities were observed in the organs	no abnormalities were observed	0	no obvious toxicity symptom was observed	64.2 ± 28.1^a3b3 μmol/L	≥ 3000 mg/kg	Serum uric acid content, Value after 3 h of drug administration (hyperuricemia rats [1]; 2.5 mg/kg oral): 189.8 ± 25.3^a3 μmol/L; Serum uric acid content, Value after 3 h of drug administration (hyperuricemia rats [1]; 5 mg/kg oral): 146.9 ± 19.5^a3, b3 μmol/L
Cc1nc(-c2ccc(OCC(C)C)c(C#N)c2)sc1C(=O)OCCCN(C)CCCO [Compound F-3B]		no animal deaths were observed	no animal died	very obvious uric acid-lowering effects	no significant difference	3000 mg/kg	No obvious abnormalities were observed in the organs	no abnormalities were observed	0	no obvious toxicity symptom was observed	66.3 ± 17.1^a3b3 μmol/L	≥ 3000 mg/kg	
Cc1nc(-c2ccc(OCC(C)C)c(C#N)c2)sc1C(=O)N1CCC[C@H]1C(=O)O [Compound F-2D]		no animal deaths were observed	no animal died			3000 mg/kg	No obvious abnormalities were observed in the organs	no abnormalities were observed	0	no obvious toxicity symptom was observed	69.1 ± 23.4^a3b3c1 μmol/L	≥ 3000 mg/kg	
Cc1nc(-c2ccc(OCC(C)C)c(C#N)c2)sc1C(=O)NC(CC(=O)O)C(=O)O (stereo not shown) [Compound F-2C]	107.3 ± 21.2^a3, b3, c3 μmol/L	no animal deaths were observed	no animal died				No obvious abnormalities were observed in the organs	no abnormalities were observed	0	no obvious toxicity symptom was observed	68.6 ± 19.2^a3b3c1 μmol/L		Serum uric acid content, Value after 3 h of drug administration (hyperuricemia rats [1]; 2.5 mg/kg oral): 172.7 ± 33.9^a3 μmol/L; Serum uric acid content, Value after 3 h of drug administration (hyperuricemia rats [1]; 5 mg/kg oral): 131.9 ± 29.7^a3, b3 μmol/L; LD50/Maximum dose (ICR mice): 3000 mg/kg
Cc1nc(-c2ccc(OCC(C)C)c(C#N)c2)sc1C(=O)OCC(O)CO (stereo not shown) [Compound F-1B]				very obvious uric acid-lowering effects	no significant difference	3000 mg/kg	No obvious abnormalities were observed in the organs	no abnormalities were observed	0	no obvious toxicity symptom was observed	67.5 ± 19.4^a3b3 μmol/L	≥ 3000 mg/kg	animal deaths within 24 hours from the administration (ICR mice; mouse, in vivo): no animal deaths were observed
Cc1nc(-c2ccc(OCC(C)C)c(C#N)c2)sc1C(=O)NCC(=O)O [Compound F-2A]		no animal deaths were observed	no animal died		< 0.01	3000 mg/kg	No obvious abnormalities were observed in the organs	no abnormalities were observed	0	no obvious toxicity symptom was observed	78.3 ± 25.1^a3b3c2 μmol/L	≥ 3000 mg/kg	
Cc1nc(-c2ccc(OCC(C)C)c(C#N)c2)sc1C(=O)OCCO [Compound F-1A]		no animal deaths were observed	no animal died			3000 mg/kg	No obvious abnormalities were observed in the organs	no abnormalities were observed	0	no obvious toxicity symptom was observed	71.0 ± 24.4^a3b3c1 μmol/L	≥ 3000 mg/kg	
